This is an account of results in patent US9468641B2, “Anti-inflammatory pharmaceutical composition comprising benzopyranyl tetracycles” (SEOUL NATIONAL UNIVERSITY R&DB FOUNDATION, priority 2014, dated 2016).

One assay concerns the target T1, purified HMGB2 protein (Homo sapiens, UniProt P26583).
T1 sequence (P26583 1-209): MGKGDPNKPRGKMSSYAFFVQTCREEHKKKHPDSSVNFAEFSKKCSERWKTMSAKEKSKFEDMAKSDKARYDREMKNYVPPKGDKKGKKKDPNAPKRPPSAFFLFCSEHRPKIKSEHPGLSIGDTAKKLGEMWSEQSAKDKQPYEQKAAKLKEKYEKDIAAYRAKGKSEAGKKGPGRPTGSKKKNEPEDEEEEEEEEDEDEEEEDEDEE
The assay is described as follows: SPR (surface plasmon resonance) assay. In kind it is binding. As to conditions: 1, 15, 30, 50, 75, and 100 μM ICM, FIG. 13. As to the method: To determine the dissociation constant of the interaction of ICM with HMGB, SPR analysis was performed using Biacore T100. A carboxyl group bound onto a CM5 chip of the biosensor was activated with EDC(1-ethyl-3-(3-dimethylaminopropyl)-carbodiimide) and NHS(N-hydroxysuccinimide) to form reactive succinimide ester. HMGB1 (10 mM Na-acetate, pH 4.0) and HMGB2 (10 mM Na-acetate, pH 4.5) proteins were immobilized via an amide bond onto the sensor chip, followed by quenching excess succinimide ester with 1 M ethanolamine-HCl (pH 8.0). PBS was used as a running buffer for the immobilization. After immobilization, various concentrations of ICM were injected (for 60 sec at a flow rate of 30 μl/min). […] For this, a buffer containing 10-mM HEPES (pH 7.4), 5% DMSO, 150 mM NaCl, 3 mM EDTA, and 0.005% P20 was injected. Binding was measured at 25° C. The measurements were analyzed using Biacore T100 Evaluation software (GE Healthcare). Finally, the curve was obtained by normalizing to the control. The dissociation constant was calculated by fitting the curve to the 1:1 binding model.

The target in another assay is T2, HMGB2 (Mus musculus, UniProt P30681).
T2 construct: endogenous in cells
T2 sequence (P30681 1-210): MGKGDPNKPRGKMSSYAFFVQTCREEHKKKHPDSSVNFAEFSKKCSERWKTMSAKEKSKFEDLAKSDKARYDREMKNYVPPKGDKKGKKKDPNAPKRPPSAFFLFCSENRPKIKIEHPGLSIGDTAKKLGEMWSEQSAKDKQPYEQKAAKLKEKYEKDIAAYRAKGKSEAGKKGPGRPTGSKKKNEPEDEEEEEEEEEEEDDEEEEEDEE
The assay is described as follows: Pull-down assay with immunoblotting for HMGB2. The following applies: ICM 20 μM as soluble competitor, ICM-BP 5 μM, FIG. 12. In kind it is binding. As to the method:
Cells were treated with the compounds (ICM-BP alone or ICM-BP/ICM in combination) for 30 min and then with LPS for 2 hrs. Afterwards, the cells were irradiated with 365-nm UV light for 30 min, washed with PBS and stored at −78° C. They were lysed in RIPA buffer containing a protease inhibitor cocktail, and the protein concentration was adjusted to approximately 1 mg/ml. The proteome was labeled with Cy5-azide (40 μM), TBTA (100 μM), CuSO4 (1 mM), TCEP (1 mM) and t-BuOH (5%) for 1 hrs. The mixture was treated with acetone at −20° C. for […] to precipitate proteins. After centrifugation at 4° C. and 14,000 rpm for […], the pellet was washed twice with cold acetone. For 1-D gel analysis, the pellet was dissolved in Laemmli sample buffer and analyzed by electrophoresis. For 2-D gel analysis, the pellet was dissolved in rehydration buffer. The proteome labeled with ICM-BP (test group) and the control (labeled with ICM-BP/ICM) were mixed (1:1 ratio). The mixed proteomes were analyzed by 2-D gel electrophoresis. In-gel fluorescence was scanned with a Typhoon Trio (GE Healthcare).
Cell lysates were prepared according to the same protocol used for the in-gel analysis (lyzed in RIPA buffer containing a protease inhibitor cocktail). […] Samples were boiled with Laemmli sample buffer, and analyzed by electrophoresis and immunoblotting for HMGB2.
For orientation: A western blot detects proteins with antibodies after separation by electrophoresis.

The test system of another assay is Il6, Il1b, Nos2, and Tnf. As to the kind of experiment: RT-PCR of pro-inflammatory mediator expression. In kind it is cell-based. As to conditions: FIG. 3. The method, then:
For the analysis of gene expression, cells were incubated with ICM for 6 hrs in the presence of LPS (for control, cells were treated with DMSO in the absence of LPS). Total RNA was extracted from cells using TRIzol reagent. Reverse transcription was conducted using Superscript II (Invitrogen) and oligo (dT) primers. PCR amplification was conducted using a DNA Engine Tetrad Peltier Thermal Cycler (Bio-Rad) using specific primer sets (at an annealing temperature of 55-60° C. for 20-30 cycles). To analyze PCR products, each sample was electrophoresed on a 1% agarose gel. The Gapdh (Glyceraldehyde-3-phosphate dehydrogenase) gene was used as an internal control.

A further assay relates to HMGB2 and HMGB1. As to the kind of experiment: Immunoprecipitation analysis of post-translational modification. It counts as cell-based. As to conditions: western blotting, FIG. 18. The method, then:
After exposure to ICM in the presence of LPS for 18 hrs, cells were lysed in subcellular fraction buffer (250 mM sucrose, 20 mM HEPES, 10 mM KCl, 1 mM EDTA, 1 mM EGTA, 1 mM DTT, and protease inhibitor cocktail), passed through a 25-Ga needle several times, and incubated on ice for 20 min. After centrifugation at 3,000 rpm for 5 min, the pellet and the supernatant were separated. The nuclear pellet was washed and then resuspended in standard lysis buffer with 10% glycerol and 0.1% SDS. The cytosolic fraction was obtained by centrifugation of the separated supernatant at 8,000 rpm for 15 min. The conditioned medium was collected for the analysis of the extracellular level of HMGBs and concentrated with Amicon Ultra 10K filters. The samples were analyzed by electrophoresis and western blotting.
For the analysis of post-translational modification levels on HMGB, immunoprecipitation was performed. […] The concentration of protein was measured by BCA assay, and the lysates were incubated overnight with an anti-phosphoserine antibody or an anti-acetylated lysine antibody at 4° C., followed by precipitation with a protein G immunoprecipitation kit (Sigma). Each of the samples was analyzed for HMGB2 level by western blot assays.

For `CC1(C)Oc2cc(O)ccc2C2C1=CCn1c(=O)n(-c3ccccc3)c(=O)n12` (stereo not shown) [ICM], the “binding to HMGB (SPR sensorgram)” value at purified HMGB2 protein is on record as “binds directly to HMGB”. Also, the “competition of ICM-BP binding to HMGB2” value on HMGB2 is “markedly lowered the level of binding for HMGB2”. In addition, the “LPS-induced expression of pro-inflammatory genes” value in the assay with Il6, Il1b, Nos2, and Tnf is recorded as “suppressed the LPS-induced expression of pro-inflammatory genes in a dose-dependent manner”. The “LPS-induced phosphorylation and acetylation of HMGB2 and HMGB1” value in the assay on HMGB2 and HMGB1 is “the post-translational modification was suppressed by ICM”.
